{
  "source": "paper PMC7188728",
  "about": "“A phase I study investigation of metabolism, and disposition of [^14C]-anlotinib after an oral administration in patients with advanced refractory solid tumors” (Cancer Chemotherapy and Pharmacology, 2020)",
  "key": {"[1]": {"experiment": "Metabolite radio-profiling (LC-RAM, LC-MS/MS) of plasma, urine and feces", "format": "in vivo, human", "procedure": "An equal volume of 2, 4, 8, 12, 24, and 96 h plasma sample was pooled by time-point across subject 03 ~ 06, to give six pooled plasma samples for metabolite profiling. An appropriate volume (3x, v/v) of acetonitrile was added to a portion of the pooled plasma sample, followed by vortexing ca. 2 min. After storage in a refrigerator for ca. 30 min, the mixture was centrifuged at ca. 10000 g at 4 °C for 10 min. The supernatant was then separated from the PES, which was suspended with water, followed by addition of methanol (2x, v/v) twice. The three extracts were combined and evaporated to dryness under a nitrogen stream by an N-Evap evaporator at room temperature. The residues were reconstituted with an appropriate volume of methanol:water (1:1, v/v) and centrifuged at ca. 10000 g at 4 ℃ for 10 min. The supernatant was subjected to HPLC radio-profiling.\nFour pooled human urine samples (subject 03 ~ 06) were pooled from 0 to 432 h based on equal volume ratios from the individual patients across time intervals. In addition, three pooled urine samples (0–48, 48–120 and 360–432 h) (subjects 03–06) were prepared by pooling human urine samples across subjects and time points. Portion of the pooled urine sample was evaporated to a small volume under a nitrogen stream and extracted with methanol (3x, v/v) followed by centrifuged at ca. 10000 g at 4 ℃ for 10 min. The supernatant was reconstituted with an appropriate volume of methanol:water (1:1, v/v) and centrifuged at ca. 10000 g at 4 ℃ for 10 min. The supernatant was subjected to HPLC radio-profiling.\nFour human fecal samples (0–432 h) were prepared by pooling feces from individual subjects (Subjects 03–06). In addition, three pooled human fecal samples (0–48, 48–120 and 360–432 h) were prepared by pooling feces samples across subjects and time points. The pooled fecal homogenate was extracted with methanol (3x, v/v) and the mixture was vortexed, and centrifuged at ca. 10000 g at 4 ℃ for 10 min. The supernatant was then separated from the PES, which was suspended with water, followed by addition of methanol twice. The three extracts were combined and evaporated to dryness under a nitrogen stream by an N-Evap evaporator at room temperature. The residues were reconstituted with an appropriate volume of methanol:water (1:1, v/v) and centrifuged at ca. 10000 g at 4 ℃ for 10 min prior to analysis.\nHPLC coupled with radioactivity monitor (LC-RAM) was used to isolate and quantitate [^14C] anlotinib and its metabolites. The plasma and fecal extracts as well as urine supernatants were subjected to HPLC separation, fractionation, and eluent collection. The radioactivity in each fraction was monitored by solid scintillation counting using a Packard TopCount® NXT™ Microplate Counter. The radio-profiles were then reconstructed using ARC® Convert software. The peak area of each radioactivity peak/region was integrated using ARC® Evaluation software, and the percent distribution of each peak/region was calculated (%TRA for plasma or %Dose for urine and feces).\nMetabolites were characterized and/or identified by LC–MS/MS in conjunction with on-line radioactivity detection. Structures of metabolites were proposed by interpretation of the mass spectral fragmentation pattern, as well as chromatographic behaviors and metabolic pathways."}, "VEGFR2/KDR and VEGFR3": {"test_system": "VEGFR2/KDR and VEGFR3", "design": "method as in PMID 29454091", "conditions": "recombinant enzymes; cited from earlier work"}},
  "note": "Counter-ions that a name gives are not always drawn.",
  "data": [
    {"smiles": "COc1cc2c(Oc3ccc4[nH]c(C)cc4c3F)ccnc2cc1OCC1(N)CC1", "note": "[anlotinib, 1-[[4-(4-fluoro-2-methyl-1H-indol-5-yloxy)-6-methoxyquinolin-7-yl]oxy]methyl) cyclopropanamine dihydrochloride]", "values": [
      {"measurement": "Drug-related component in feces, % of the dose", "setting": "[1]; feces, pooled 0–432 h, subjects 03–06, single oral 14.15 mg/120 μCi", "value": "5.64 % of the dose"},
      {"measurement": "Drug-related component in human plasma (radio-profile)", "setting": "[1]; pooled plasma 2–96 h, subjects 03–06, listed as parent drug", "value": "major drug-related component"},
      {"measurement": "Drug-related component in urine, % of the dose", "setting": "[1]; urine, pooled 0–432 h, subjects 03–06, single oral 14.15 mg/120 μCi", "value": "0.73 % of the dose"},
      {"measurement": "Capability to inhibit VEGFR2/KDR and VEGFR3, times stronger compared with sorafenib", "setting": "VEGFR2/KDR and VEGFR3", "value": "~500", "unit": "times"},
      {"measurement": "Capability to inhibit VEGFR2/KDR and VEGFR3, times stronger compared with sunitinib", "setting": "VEGFR2/KDR and VEGFR3", "value": "approximately 20 times"}
    ]}
  ]
}
